According to the NIST ThermoML archive (doi:10.1021/acs.jced.9b00062):

Assays:
[1] = for Normal melting temperature: DTA
[2] = Molar enthalpy of transition or fusion; settings: Crystal; DSC

COc1c(Br)cc(Br)cc1Br [2,4,6-tribromoanisole]
[1]
Settings | vapor or sublimation pressure [kPa]
330.66 K, Crystal, Closed cell (Static) method | 0.00284
332.63 K, Crystal, Closed cell (Static) method | 0.00349
334.5 K, Crystal, Closed cell (Static) method | 0.0042
336.57 K, Metastable liquid, Closed cell (Static) method | 0.00889
336.63 K, Crystal, Closed cell (Static) method | 0.0051
338.58 K, Crystal, Closed cell (Static) method | 0.00623
338.61 K, Metastable liquid, Closed cell (Static) method | 0.01033
340.54 K, Crystal, Closed cell (Static) method | 0.00747
340.57 K, Metastable liquid, Closed cell (Static) method | 0.01173
342.54 K, Metastable liquid, Closed cell (Static) method | 0.01369
342.55 K, Crystal, Closed cell (Static) method | 0.00915
344.5 K, Crystal, Closed cell (Static) method | 0.01086
344.5 K, Metastable liquid, Closed cell (Static) method | 0.01549
346.47 K, Crystal, Closed cell (Static) method | 0.01317
346.48 K, Metastable liquid, Closed cell (Static) method | 0.01786
348.43 K, Crystal, Closed cell (Static) method | 0.01563
348.5 K, Metastable liquid, Closed cell (Static) method | 0.02061
350.42 K, Crystal, Closed cell (Static) method | 0.01881
350.43 K, Metastable liquid, Closed cell (Static) method | 0.02345
352.4 K, Crystal, Closed cell (Static) method | 0.0224
352.41 K, Metastable liquid, Closed cell (Static) method | 0.02697
354.32 K, Crystal, Closed cell (Static) method | 0.0266
354.42 K, Metastable liquid, Closed cell (Static) method | 0.03065
356.36 K, Metastable liquid, Closed cell (Static) method | 0.03485
356.37 K, Crystal, Closed cell (Static) method | 0.03175
358.31 K, Metastable liquid, Closed cell (Static) method | 0.03946
360.25 K, Metastable liquid, Closed cell (Static) method | 0.04472
362.27 K, Closed cell (Static) method, Liquid | 0.05049
364.24 K, Closed cell (Static) method, Liquid | 0.05678
366.22 K, Closed cell (Static) method, Liquid | 0.06459
368.15 K, Closed cell (Static) method, Liquid | 0.07257
370.19 K, Closed cell (Static) method, Liquid | 0.08197
372.11 K, Closed cell (Static) method, Liquid | 0.09183
374.05 K, Closed cell (Static) method, Liquid | 0.1023
376.07 K, Closed cell (Static) method, Liquid | 0.1152
377.95 K, Closed cell (Static) method, Liquid | 0.1277
379.95 K, Closed cell (Static) method, Liquid | 0.1426
381.85 K, Closed cell (Static) method, Liquid | 0.1595
383.82 K, Closed cell (Static) method, Liquid | 0.177
385.79 K, Closed cell (Static) method, Liquid | 0.1958
387.78 K, Closed cell (Static) method, Liquid | 0.2203
389.79 K, Closed cell (Static) method, Liquid | 0.2436
391.72 K, Closed cell (Static) method, Liquid | 0.2676

Settings | Normal melting temperature [°C]
[1], Crystal | 86.29

Settings | Molar enthalpy of transition or fusion [kJ/mol]
[2] | 23.9

Oc1c(Br)cc(Br)cc1Br [2,4,6-tribromophenol]
Settings | mass density [kg/m3]
[1], 150 K, 101.33 kPa, Crystal, X-ray diffraction | 2712

[1]
Settings | vapor or sublimation pressure [kPa]
307.16 K, Crystal, Calculated from knudsen effusion weight loss | 0.000107
309.36 K, Crystal, Calculated from knudsen effusion weight loss | 0.000141
311.2 K, Crystal, Calculated from knudsen effusion weight loss | 0.000177
313.15 K, Crystal, Calculated from knudsen effusion weight loss | 0.000221
315.37 K, Crystal, Calculated from knudsen effusion weight loss | 0.000286
317.19 K, Crystal, Calculated from knudsen effusion weight loss | 0.000358
319.15 K, Crystal, Calculated from knudsen effusion weight loss | 0.00044
321.33 K, Crystal, Calculated from knudsen effusion weight loss | 0.00057
323.2 K, Crystal, Calculated from knudsen effusion weight loss | 0.0007
325.15 K, Crystal, Calculated from knudsen effusion weight loss | 0.000857
327.33 K, Crystal, Calculated from knudsen effusion weight loss | 0.0011
329.21 K, Crystal, Calculated from knudsen effusion weight loss | 0.00133
336.49 K, Crystal, Closed cell (Static) method | 0.00284
338.49 K, Crystal, Closed cell (Static) method | 0.00343
340.48 K, Crystal, Closed cell (Static) method | 0.00423
342.48 K, Crystal, Closed cell (Static) method | 0.00513
344.42 K, Crystal, Closed cell (Static) method | 0.00612
344.43 K, Metastable liquid, Closed cell (Static) method | 0.01029
346.35 K, Crystal, Closed cell (Static) method | 0.00743
346.53 K, Metastable liquid, Closed cell (Static) method | 0.012
348.28 K, Metastable liquid, Closed cell (Static) method | 0.01367
348.35 K, Crystal, Closed cell (Static) method | 0.00894
350.35 K, Crystal, Closed cell (Static) method | 0.01085
350.37 K, Metastable liquid, Closed cell (Static) method | 0.01582
352.36 K, Metastable liquid, Closed cell (Static) method | 0.01813
352.41 K, Crystal, Closed cell (Static) method | 0.01316
354.35 K, Metastable liquid, Closed cell (Static) method | 0.02079
354.4 K, Crystal, Closed cell (Static) method | 0.01584
356.31 K, Metastable liquid, Closed cell (Static) method | 0.02367
358.2 K, Metastable liquid, Closed cell (Static) method | 0.02689
360.17 K, Metastable liquid, Closed cell (Static) method | 0.03085
362.2 K, Metastable liquid, Closed cell (Static) method | 0.03491
364.19 K, Metastable liquid, Closed cell (Static) method | 0.04045
366.13 K, Metastable liquid, Closed cell (Static) method | 0.04605
368.11 K, Closed cell (Static) method, Liquid | 0.05207
370.06 K, Closed cell (Static) method, Liquid | 0.05865
372.03 K, Closed cell (Static) method, Liquid | 0.06591
374.17 K, Closed cell (Static) method, Liquid | 0.07545
376.12 K, Closed cell (Static) method, Liquid | 0.08537
378.03 K, Closed cell (Static) method, Liquid | 0.09595
380 K, Closed cell (Static) method, Liquid | 0.1071
381.93 K, Closed cell (Static) method, Liquid | 0.119
383.93 K, Closed cell (Static) method, Liquid | 0.1348
385.88 K, Closed cell (Static) method, Liquid | 0.1513
387.86 K, Closed cell (Static) method, Liquid | 0.1682
389.84 K, Closed cell (Static) method, Liquid | 0.1876
391.79 K, Closed cell (Static) method, Liquid | 0.2094
393.77 K, Closed cell (Static) method, Liquid | 0.2339
395.73 K, Closed cell (Static) method, Liquid | 0.259
397.68 K, Closed cell (Static) method, Liquid | 0.284
399.69 K, Closed cell (Static) method, Liquid | 0.3164
401.66 K, Closed cell (Static) method, Liquid | 0.3517

Settings | Normal melting temperature [°C]
[1], Crystal | 92.92

Settings | Molar enthalpy of transition or fusion [kJ/mol]
[2] | 20.8

COc1c(Cl)cc(Cl)cc1Cl [2,4,6-trichloroanisole]
[1]
Settings | vapor or sublimation pressure [kPa]
297.11 K, Crystal, Closed cell (Static) method | 0.00239
300.13 K, Crystal, Closed cell (Static) method | 0.00337
303.1 K, Crystal, Closed cell (Static) method | 0.00462
306.06 K, Crystal, Closed cell (Static) method | 0.00649
309.01 K, Crystal, Closed cell (Static) method | 0.00877
311.98 K, Crystal, Closed cell (Static) method | 0.01199
315.2 K, Crystal, Closed cell (Static) method | 0.01642
317.95 K, Crystal, Closed cell (Static) method | 0.02189
319.65 K, Metastable liquid, Closed cell (Static) method | 0.03551
320.87 K, Crystal, Closed cell (Static) method | 0.02895
322.82 K, Metastable liquid, Closed cell (Static) method | 0.04391
323.91 K, Crystal, Closed cell (Static) method | 0.03921
325.77 K, Metastable liquid, Closed cell (Static) method | 0.05384
326.89 K, Crystal, Closed cell (Static) method | 0.05174
328.77 K, Metastable liquid, Closed cell (Static) method | 0.06611
329.85 K, Crystal, Closed cell (Static) method | 0.06647
331.73 K, Metastable liquid, Closed cell (Static) method | 0.0803
334.71 K, Closed cell (Static) method, Liquid | 0.09766
337.68 K, Closed cell (Static) method, Liquid | 0.118
340.63 K, Closed cell (Static) method, Liquid | 0.1424
343.63 K, Closed cell (Static) method, Liquid | 0.1712
346.05 K, Closed cell (Static) method, Liquid | 0.1971
348.6 K, Closed cell (Static) method, Liquid | 0.2292
351.58 K, Closed cell (Static) method, Liquid | 0.2724
354.51 K, Closed cell (Static) method, Liquid | 0.3225
356.47 K, Closed cell (Static) method, Liquid | 0.3593
359.37 K, Closed cell (Static) method, Liquid | 0.4214
362.38 K, Closed cell (Static) method, Liquid | 0.4943
365.32 K, Closed cell (Static) method, Liquid | 0.5801
368.31 K, Closed cell (Static) method, Liquid | 0.6729

Settings | Normal melting temperature [°C]
[1], Crystal | 59.32

Settings | Molar enthalpy of transition or fusion [kJ/mol]
[2] | 22.4
